Data from PMC12006171, “Marsupial cathelicidins: characterization, antimicrobial activity and evolution in this unique mammalian lineage” (Frontiers in Immunology, 2025).
In brackets after ≈: the same amount, converted by molar mass. Read-outs that look alike come from different tables or passages of the source. Where a SMILES comes first, the peptide text is derived from it.

Assays:
[1] = system: Staphylococcus aureus clinical isolate – animal, methicillin-resistant (MRSA); type: cell-based; conditions: clinical isolate – animal, methicillin-resistant
In short: (§1)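 Broth microdilution per CLSI M07-A/M26A; peptides in DMSO, final 64-0.125 μg/mL, inoculum 5 x 10^5 CFU/mL. Bacteria in MHB ± 10% lysed horse blood ± Ca/Mg cations, yeasts in RPMI-1640 MOPS; 35°C for 20–24 h. MIC is lowest concentration without visible growth.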

[2] = system: Staphylococcus aureus clinical isolate – animal, penicillin-resistant (PRSA); type: cell-based; conditions: clinical isolate – animal, penicillin-resistant (PRSA)
In short: as §1

[3] = system: six bacteria (S. aureus, E. coli, P. aeruginosa; ATCC and clinical isolate); type: cell-based; conditions: synthesized mature peptide; antimicrobial screening Phase I; Y/N summary over bacteria tested, broth microdilution
In short: (§2)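 CLSI broth microdilution, MHB ± cations ± 10% lysed horse blood; peptide 64-0.125μg/mL final, duplicates; 5 x 10^5 CFU/mL; 35°C, 20–24 h; MIC = no visible growth.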

[4] = system: Staphylococcus aureus clinical isolate - animal; test: microbe, parasite or virus in culture; type: cell-based
In short: as §2

[5] = system: Pseudomonas aeruginosa ATCC 27853; test: microbe, parasite or virus in culture; type: cell-based; conditions: ATCC 27853; read-out: MIC P. aeruginosa ATCC
In short: as §2

[6] = system: Pseudomonas aeruginosa clinical isolate - animal; test: microbe, parasite or virus in culture; type: cell-based; conditions: clinical isolate - animal; read-out: MIC P. aeruginosa
In short: as §2

[7] = system: Escherichia coli clinical isolate - animal; test: microbe, parasite or virus in culture; type: cell-based
In short: as §2

[8] = system: Staphylococcus aureus ATCC 29213; test: microbe, parasite or virus in culture; type: cell-based
In short: as §2

[9] = system: Escherichia coli ATCC 25922; test: microbe, parasite or virus in culture; type: cell-based
In short: as §2

[10] = system: three fungi (Candida krusei, Candida parapsilosis, Candida albicans); test: Antifungal screening, summary over the panel of fungi (broth microdilution); type: cell-based; conditions: synthesized mature peptide; antimicrobial screening Phase I; Y/N summary over fungi tested, broth microdilution
Method: Antimicrobial testing of 78 cathelicidin MPs was performed in two phases as outlined in Figure 1 . In phase I, 40 peptides (27 extant and 13 ancestral) were selected for testing based on rank (outlined above) and similarity to published marsupial cathelicidins with known antimicrobial activity ([33], [41]–[43]). These peptides were tested against nine bacteria (Staphylococcus aureus ATCC 29213 and clinical isolate, Escherichia coli ATCC 25922 and clinical isolate, Pseudomonas aeruginosa ATCC 27853 and clinical isolate, Streptococcus agalactiae ATCC 12386 and clinical isolate, Streptococcus pneumoniae ATCC 49619) and three fungi (Candida krusei ATCC 6258, Candida parapsilosis ATCC 22019, and Candida albicans clinical isolate). Details regarding these strains are available in Supplementary Table 4 . The antimicrobial activity of cathelicidins was determined as the minimum inhibitory concentration (MIC), which was the lowest concentration of cathelicidin that prevented visible bacterial or fungal growth, relative to the negative control. […] Minimum bactericidal concentration (MBC) and/or minimum fungicidal concentration (MFC) was conducted to determine microbicidal versus static action. Activity against S. aureus ATCC, E. coli ATCC, and Pseudomonas aeruginosa ATCC 27853 was examined in the presence of divalent cations to determine the impact of inhibitors.
Antimicrobial activity was determined using a broth microdilution susceptibility assay in 96 well polypropylene plates according to Clinical Laboratory Standards Institute guidelines M07-A and M26A as described previously ([33], [42], [43]). The bacterial and fungal isolates from humans and animals used in this study are outlined in Supplementary Table 4 . Only yeasts were included in the panel of fungi as they have been used in the susceptibility testing of eutherian ([3], [81]–[83]) and other marsupial cathelicidins previously ([33], [42], [43]). Cathelicidin mature peptides were solubilized in DMSO and serially diluted in duplicate from 128-0.25μg/mL in a final volume of 100µL. For bacteria, cathelicidins were diluted in Mueller Hinton Broth (MHB) with or without 10% lysed horse blood, and with (MH II B) or without (MHB) calcium and magnesium cations. For fungi, cathelicidins were diluted in Roswell Park Memorial Institute medium (RPMI)-1640 MOPS. Ampicillin or tetracycline were included as a positive control for Gram-positive and -negative bacteria respectively, while amphotericin B was used for fungi. A media-only negative control and growth control (no cathelicidin) were also included on each plate. Bacteria were sub-cultured on Muller Hinton agar (MHA) or sheep blood agar (BA), and fungi on Sabouraud dextrose agar (SAB), 20–24 hours prior to the test. Colonies were suspended in saline, the concentration adjusted to a 0.5 McFarland standard, and then diluted in media to a concentration of 1.0 x 10^6 cells/mL. Then, 100μL was added to each well of the cathelicidin dilution plate, giving a final inoculum density of 5 x 10^5 CFU/mL and cathelicidin concentration of 64-0.125μg/mL. Colony counts were performed on MHA/BA/SAB to confirm inoculum density. All plates were incubated at 35°C for 20–24 hours, depending on the strain.
Colonies were counted and compared to the colony count of the starting inoculum.

[11] = system: S. aureus ATCC 29213; test: Killing kinetics (time kill assay); type: cell-based, Staphylococcus aureus; conditions: MHB, 35°C, sampled 1-24 hours, n = 2
Method: The killing kinetics assay was conducted using mid-logarithmic phase cultures of E. coli ATCC 25922 and S. aureus ATCC 29213 in MHB. Cultures were adjusted to a 0.5 McFarland standard, diluted in MHB, and then 100µL was added to each culture tube containing 10mL pre-warmed MHB to give a final inoculum concentration of 5 x 10^5 CFU/mL. A sterility control of 100uL MHB, growth control (no cathelicidin), and vehicle control (DMSO) were also included. Furthermore, 10uL was immediately removed from the growth control tube, diluted 1/1000 in saline and 100µL plated onto MHA in duplicate to confirm inoculum density. To establish colony counts from 0 hours of cathelicidin treatment, 200µL was removed from each culture tube and serially diluted ten-fold in saline from 10^0 to […] in a total volume of 200µL. Then, 10µL of each dilution was spotted onto MHA in duplicate, which were incubated at 35°C for 24 hours.
All culture tubes were then incubated at 35°C static. At 1, 2, 4, 6, 8, 10, 12, and 24 hours post-cathelicidin treatment, 200µL was removed from each culture tube for dilution and plated on MHA as described above. […] Counts of duplicates were averaged, and the log10 CFU/mL graphed against time. This was used as input for one-way ANOVA (p < 0.05) followed by Dunnett’s post hoc test.

[12] = system: Streptococcus agalactiae ATCC 12386; test: microbe, parasite or virus in culture; type: cell-based; conditions: ATCC 12386; read-out: MIC S. agalactiae ATCC
In short: as §1

[13] = system: Streptococcus agalactiae Clinical isolate - animal; test: microbe, parasite or virus in culture; type: cell-based; conditions: clinical isolate - animal; read-out: MIC S. agalactiae
In short: as §1

[14] = system: Streptococcus pneumoniae ATCC 49619; test: microbe, parasite or virus in culture; type: cell-based; conditions: ATCC 49619; read-out: MIC S. pneumoniae ATCC
In short: as §1

[15] = clinical isolate, MHB without cations, 5 x 10^5 CFU/mL, 35°C 20–24 hours, duplicate
[16] = clinical isolate, superscript value, cation-adjusted Mueller Hinton broth
[17] = clinical isolate, value in brackets, 99.9% reduction in CFU/mL

## CC[C@H](C)[C@H](NC(=O)[C@H](CCCCN)NC(=O)CNC(=O)[C@H](CC(C)C)NC(=O)CNC(=O)[C@H](CCC(N)=O)NC(=O)CNC(=O)[C@H](CC(C)C)NC(=O)[C@@H]1CCCN1C(=O)[C@H](CCCCN)NC(=O)[C@H](CCSC)NC(=O)[C@H](CC(C)C)NC(=O)[C@H](CCCCN)NC(=O)[C@H](CCCCN)NC(=O)[C@H](CCCCN)NC(=O)CNC(=O)CNC(=O)[C@H](CCCNC(=N)N)NC(=O)[C@@H](N)CCCCN)C(=O)N[C@@H](CC(C)C)C(=O)N[C@@H](CCCCN)C(=O)N[C@@H](Cc1c[nH]cn1)C(=O)N[C@@H](Cc1ccccc1)C(=O)N[C@@H](CC(N)=O)C(=O)N[C@H](C(=O)N[C@@H](CC(=O)O)C(=O)N[C@@H](Cc1ccccc1)C(=O)N[C@@H](CS)C(=O)NCC(=O)N[C@@H](CC(N)=O)C(=O)N[C@@H](CS)C(=O)O)[C@@H](C)CC [MAP11] (H-KRGGKKKLMKPLGQGLGKILKHFNIDFCGNC-OH; N-terminus and C-terminus assumed)
[1]
  MBC MRSA: 9.3 µM (≈ 31.9 µg/mL)
  MIC MRSA: 9.3 µM (≈ 31.9 µg/mL)
[2]
  MBC PRSA: 4.6 µM (≈ 15.8 µg/mL)
  MIC PRSA: 4.6 µM (≈ 15.8 µg/mL)
[3]
  Antibacterial (MIC <64ug/mL): Y (Antibacterial (MIC <64ug/mL))
[4]; clinical isolate - animal
  MBC S. aureus: 9.3 µM
[4]; clinical isolate - animal, read-out: MIC S. aureus
  MIC: 9.3 µM (≈ 31.9 µg/mL)
[4]; clinical isolate - animal, read-out: MIC in the presence of cations S. aureus
  MIC: 4.6 µM
[4]; [15]
  MIC S. aureus: 32 µg/mL (≈ 9.33 µM)
[4]; [16]
  MIC in the presence of cations S. aureus: 16 µg/mL
[4]; [17]
  MBC S. aureus: 32 µg/mL
[5]
  MIC: >18.6 µM
[6]
  MIC: >18.6 µM
[7]; clinical isolate - animal
  MBC E. coli: 9.3 µM
  MIC: 9.3 µM (≈ 31.9 µg/mL)
  MIC in the presence of cations E. coli: 18.6 µM
[7]; [15]
  MIC E. coli: 32 µg/mL (≈ 9.33 µM)
[7]; [16]
  MIC in the presence of cations E. coli: 64 µg/mL
[7]; [17]
  MBC E. coli: 32 µg/mL
[8]; ATCC 29213
  MIC S. aureus ATCC: 16 µg/mL (≈ 4.66 µM)
[8]; superscript value, cation-adjusted Mueller Hinton broth (calcium and magnesium)
  MIC in the presence of cations S. aureus ATCC: 32 µg/mL
[8]; value in brackets, 99.9% reduction in CFU/mL relative to starting inoculum
  MBC S. aureus ATCC: 32 µg/mL (≈ 9.33 µM)
[9]; ATCC 25922
  MBC E. coli ATCC: 18.6 µM
[9]; ATCC 25922, read-out: MIC E. coli ATCC
  MIC: 9.3 µM (≈ 31.9 µg/mL)
[9]; ATCC 25922, read-out: MIC in the presence of cations E. coli ATCC
  MIC: 9.3 µM
[9]; MHB without cations, 5 x 10^5 CFU/mL, 35°C 20–24 hours, duplicate
  MIC E. coli ATCC: 32 µg/mL (≈ 9.33 µM)
[9]; superscript value, cation-adjusted Mueller Hinton broth
  MIC in the presence of cations E. coli ATCC: 32 µg/mL
[9]; value in brackets, 99.9% reduction in CFU/mL
  MBC E. coli ATCC: 64 µg/mL
[10]
  Antifungal (MIC <64ug/mL): N (Antifungal (MIC <64ug/mL))
[11]; 0.5x MIC
  Number of hours to cause a significant reduction in log CFU/mL of S. aureus ATCC (p < 0.05): 4 hours
[11]; 2x MIC
  Number of hours to cause a significant reduction in log CFU/mL of S. aureus ATCC (p < 0.05): 2 hours
[11]; MIC
  Number of hours to cause a significant reduction in log CFU/mL of S. aureus ATCC (p < 0.05): 4 hours
[12]
  MIC: >18.6 µM
[13]
  MIC: >18.6 µM
[14]
  MIC: >18.6 µM
